According to PMC6081875 (EJNMMI Research, 2018):

How the values were obtained:
[1] = Whole-body effective half-life from sequential whole-body planar images (mono-exponential fit); format: in vivo, human; details: mono-exponential fit, 24, 48, 72 h p. i.
Protocol: (§1) Data for dosimetry were acquired during a routine 4-day in-patient stay following the radiopharmaceutical injection, in conjunction with standard clinical examinations. All patients received a 15-min one-bed abdominal SPECT scan and a 20-min whole-body planar scintigraphy at 24, 48, and 72 h post-injection (p. i.) on a dual-headed Symbia T2 SPECT/CT (Siemens Medical Solutions, Erlangen, Germany). Counts were detected for the photopeak window of 208 keV (width 15%) by the usage of a medium-energy low-penetration collimator. Two additional scatter windows were measured at 170 keV (width 15%) and 240 keV (width 10%). A low-dose AC-CT was acquired at the first image acquisition session for anatomical correlation and attenuation correction during quantitative SPECT reconstruction. For the determination of the absorbed dose to the bone marrow from the activity circulating in the blood, five venous blood samples were drawn from the site contralateral to injection at 30 and 80 min p. i. and 24, 48, and 72 h p. i..
For each patient, all acquired whole-body planar images were corrected for scatter and attenuation on a pixel basis via a dedicated MATLAB routine (Fig. 1); for the correction of scatter, the TEW method was applied, as for the quantitative SPECT images. For the attenuation correction, a linear projection of μ values along the ventral axis of the patient was created from the diagnostic CT image of the pre-therapeutic Ga-68 PET/CT scan, which covered nearly the whole patient body from the middle of the head to approximately the knees. Therefore, a conversion between the Hounsfield units (HUs) in the diagnostic CT and the μ values at 208 keV was established by acquiring a CT scan of a Gammex tissue phantom (Gammex 467; Gammex, Inc., Middleton, WI) with 16 tissue rods of known composition and thus known attenuation characteristics. The μ values of all rods were plotted against the measured HUs, and a bilinear fit model (range 1: HU = (− 688;0); range 2: HU = (0;1127)) was applied to the whole data set. This calibration curve allows for the assignment of μ values to a continuous range of HUs. The lower arms and legs as well as a part of the head were not included in the PET/CT data, as the arms are usually positioned above the head during the PET/CT scan and as the PET/CT scan is usually not acquired over the entire patient length. By contrast, the arms, legs, and head are fully included in the whole-body planar images, and an appropriate μ value has to be defined for each segment (Fig. 1). Thus, mean μ values derived from three patients with PET/CT acquisitions of the head, legs, and arms were assigned to the missing segments. Therefore, all segments—the part visible on the PET/CT and the missing parts of the head, arms, and legs—were delineated on the co-registered whole-body planar images (delineation and rigid body co-registration via PMOD Version 3.609). The resulting map of the regions of interest (ROI) was saved, with each ROI segment being characterised via a defined value. This ROI map was then loaded by a self-designed MATLAB routine, which assigned the defined μ value to each segment according to the ROI number. Afterwards, the resulting whole-body integral μ-map was blurred via a Gaussian filter with a width approximating an average resolution of the gamma camera (geometric resolution of full width at half maximum of 11 mm at 10 cm). Pixel-wise attenuation correction was finally performed in conjunction with geometric averaging of both planar views (conjugate view method).
Calibration of whole-body planar images was performed via the corresponding quantitative abdominal SPECT by using the fact that ideally the total activity ASPECT within the quantitative SPECT should be correlated to the number of counts per second (cps) xplanar in the planar abdominal counterpart multiplied by an appropriate calibration factor: […]

[2] = test system: bone marrow; assay: Bone marrow dosimetry, reference protocol (RP): sequential whole-body planar and quantitative SPECT images plus blood samples, organ-level S values; format: in vivo
Protocol: as §1
Quantitative SPECT images were reconstructed as described by Delker et al. via a rotation-based, penalised, one-step-late ordered subset expectation maximisation algorithm, which included corrections for scatter, attenuation, and distance-dependent geometrical collimator blur. Attenuation correction was performed for each SPECT scan via the AC-CT, which was acquired along with the SPECT scan 24 h post-injection. To apply the attenuation correction, especially to the SPECT scans 48 and 72 h p. i., the single AC-CT was co-registered onto an initial SPECT reconstruction without attenuation correction by using a rigid body co-registration algorithm with six degrees of freedom (PMOD Version 3.609, PMOD Technologies, Zurich, Switzerland). If only one AC-CT is acquired for sequential SPECT imaging, special care has to be taken to minimise misregistration between SPECT images and separately acquired CT scans, as such a misalignment can distort the proper attenuation correction and, thus, activity quantification. This is in principal also true for serial SPECT and CT imaging, as even within a single image acquisition session patient movements cannot be entirely avoided. Scatter correction employed the triple energy window (TEW) method. Correction for distance-dependent collimator blur made use of a Gaussian blur model. Corrections for partial volume effects and dead time were not applied. For conversion of the measured counts per second and per voxel to Becquerel per millilitre, an appropriate calibration factor was determined. Therefore, we used a large cylinder of approximately 20 cm diameter, which was filled with a known activity concentration and which has been imaged and reconstructed via the same protocol.
For each patient, all acquired whole-body planar images were corrected for scatter and attenuation on a pixel basis via a dedicated MATLAB routine (Fig. 1); for the correction of scatter, the TEW method was applied, as for the quantitative SPECT images. For the attenuation correction, a linear projection of μ values along the ventral axis of the patient was created from the diagnostic CT image of the pre-therapeutic Ga-68 PET/CT scan, which covered nearly the whole patient body from the middle of the head to approximately the knees. Therefore, a conversion between the Hounsfield units (HUs) in the diagnostic CT and the μ values at 208 keV was established by acquiring a CT scan of a Gammex tissue phantom (Gammex 467; Gammex, Inc., Middleton, WI) with 16 tissue rods of known composition and thus known attenuation characteristics. The μ values of all rods were plotted against the measured HUs, and a bilinear fit model (range 1: HU = (− 688;0); range 2: HU = (0;1127)) was applied to the whole data set. This calibration curve allows for the assignment of μ values to a continuous range of HUs. […]

[3] = median of n = 5 patients per therapy
[4] = median of n = 5 patients per therapy, approx. 7.4 GBq Lu-177-Octreotate (NET) or 3.7 GBq Lu-177-PSMA-617 (mCRPC)

C[C@@H](O)[C@H](NC(=O)[C@@H]1CSSC[C@H](NC(=O)[C@@H](Cc2ccccc2)NC(=O)CN2CCN(CC(=O)O)CCN(CC(=O)O)CCN(CC(=O)O)CC2)C(=O)N[C@@H](Cc2ccc(O)cc2)C(=O)N[C@H](Cc2c[nH]c3ccccc23)C(=O)N[C@@H](CCCCN)C(=O)N[C@@H]([C@@H](C)O)C(=O)N1)C(=O)O [Lu-177-Octreotate, Lu-177-[DOTA^0,Tyr^3]-Octreotate, metal not drawn]
T1/2, WB, planar-based whole-body effective half-life [1, 3]: 43 h
T1/2, WB, planar-based whole-body effective half-life ([1]; patient P1 (NET)): 40 h
T1/2, WB, planar-based whole-body effective half-life ([1]; patient P2 (NET)): 43 h
T1/2, WB, planar-based whole-body effective half-life ([1]; patient P3 (NET)): 43 h
T1/2, WB, planar-based whole-body effective half-life ([1]; patient P4 (NET)): 52 h
T1/2, WB, planar-based whole-body effective half-life ([1]; patient P5 (NET)): 62 h
DBM ← total, total bone marrow absorbed dose, RP [2, 4]: 12.1 mGy/GBq
DBM ← total, total bone marrow absorbed dose, RP ([2]; patient P1 (NET, 7654 MBq)): 12.1 mGy/GBq
DBM ← total, total bone marrow absorbed dose, RP ([2]; patient P2 (NET, 7425 MBq)): 9.6 mGy/GBq
DBM ← total, total bone marrow absorbed dose, RP ([2]; patient P3 (NET, 7420 MBq)): 15.6 mGy/GBq
DBM ← total, total bone marrow absorbed dose, RP ([2]; patient P4 (NET, 7409 MBq)): 11.8 mGy/GBq
DBM ← total, total bone marrow absorbed dose, RP ([2]; patient P5 (NET, 7410 MBq)): 12.7 mGy/GBq

O=C(O)CC[C@H](NC(=O)N[C@@H](CCCCNC(=O)[C@H](Cc1ccc2ccccc2c1)NC(=O)[C@H]1CC[C@H](CNC(=O)CN2CCN(CC(=O)O)CCN(CC(=O)O)CCN(CC(=O)O)CC2)CC1)C(=O)O)C(=O)O [Lu-177-PSMA-617, Lu-177-DKFZ-PSMA-617, metal not drawn]
T1/2, WB, planar-based whole-body effective half-life [1, 3]: 31 h
T1/2, WB, planar-based whole-body effective half-life ([1]; patient P6 (mCRPC)): 22 h
T1/2, WB, planar-based whole-body effective half-life ([1]; patient P7 (mCRPC)): 31 h
T1/2, WB, planar-based whole-body effective half-life ([1]; patient P8 (mCRPC)): 65 h
T1/2, WB, planar-based whole-body effective half-life ([1]; patient P9 (mCRPC)): 39 h
T1/2, WB, planar-based whole-body effective half-life ([1]; patient P10 (mCRPC)): 29 h
DBM ← total, total bone marrow absorbed dose, RP [2, 4]: 10.2 mGy/GBq
DBM ← total, total bone marrow absorbed dose, RP ([2]; patient P6 (mCRPC, 3718 MBq)): 10.2 mGy/GBq
DBM ← total, total bone marrow absorbed dose, RP ([2]; patient P7 (mCRPC, 3743 MBq)): 6.7 mGy/GBq
DBM ← total, total bone marrow absorbed dose, RP ([2]; patient P8 (mCRPC, 3745 MBq)): 16.8 mGy/GBq
DBM ← total, total bone marrow absorbed dose, RP ([2]; patient P9 (mCRPC, 3752 MBq)): 14.2 mGy/GBq
DBM ← total, total bone marrow absorbed dose, RP ([2]; patient P10 (mCRPC, 3700 MBq)): 8.3 mGy/GBq
